Measurements as given in patent US9115093B2, “Substituted bicyclic dihydropyrimidinones and their use as inhibitors of neutrophil elastase activity” (Boehringer Ingelheim International GmbH, priority 2013, dated 2015).
Converted amounts (≈) assume the structure as drawn.

What was measured:
Aqueous solubility = format: physicochemical; conditions: McIlvaine buffer pH 6.8, 2.5% DMSO, 24 h shaking; for solubility at 24 h: McIlvaine buffer with 2.5% DMSO
Description: Assay for Determination of Aqueous Solubility
The aqueous solubility of a compound is determined by comparing the amount dissolved in aqueous buffer (containing 2.5% DMSO) to the amount dissolved in an acetonitrile/water (1/1) solution. Starting from a 10 mM DMSO stock solution, aliquots are diluted with acetonitrile/water (1/1) and Mcllvaine buffer pH 6.8, respectively. After 24 h of shaking, the solutions or suspensions are filtered and analyzed by LC-UV. The amount dissolved in buffer is compared to the amount dissolved in the acetonitrile/water (1/1) solution. Solubility is measured from 0.001 to 0.125 mg/ml at a DMSO concentration of 2.5%. If more than 90% of the compound is dissolved in buffer, the value is marked with “>”.

neutrophil elastase = biological target: T1, neutrophil elastase (Homo sapiens, UniProt P08246); experiment: Neutrophil elastase inhibitory activity in human plasma; format: biochemical; set-up: The stimulated blood is centrifuged to generate the neutrophil elastase enriched plasma; from tissue; host or cells: plasma from zymosan-stimulated citrated whole blood of healthy human donors; conditions: neutrophil elastase enriched human plasma (zymosan-stimulated blood), substrate MeOSuc-Ala-Ala-Pro-Val-AMC
T1 sequence (P08246 30-247 limits assumed): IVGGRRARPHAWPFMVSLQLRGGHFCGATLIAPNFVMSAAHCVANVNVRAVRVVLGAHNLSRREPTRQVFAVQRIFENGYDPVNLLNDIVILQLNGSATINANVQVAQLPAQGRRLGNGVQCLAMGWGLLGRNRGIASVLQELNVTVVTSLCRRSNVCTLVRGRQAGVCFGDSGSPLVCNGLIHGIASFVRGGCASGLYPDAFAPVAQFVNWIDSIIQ
Description: Assay for the Determination of Neutrophil Elastase Inhibitory Activity in Human Plasma
Citrated blood from human healthy donors is mixed with zymosan suspension and incubated at room temperature. This leads to the stimulation of neutrophils and the release of neutrophil elastase into the plasma. The stimulated blood is centrifuged to generate the neutrophil elastase enriched plasma.
Preparation of Zymosan Working Solution:
• single 45 ml blood sample is taken into a 50 ml tube containing citrate (3.13%, 5 mL) and the tube is gently inverted 4 times. • Immediately after blood sampling, zymosan working solution (5 mL) is added. • After the addition of zymosan working solution, the tubes are capped, mixed gently and incubated at 22° C. for 15 min on a shaker at 20 rpm. • Make 10 ml aliquots after the incubation time. • Centrifuge the 15 ml tubes at 800 g for […] at 4° C. in a Jouan centrifuge. • Harvest the plasma and make 1-5 ml aliquots. • Store the plasma at −80° C.
Various concentrations of the neutrophil elastase inhibitor are incubated with plasma. Subsequently, the enzyme activity is measured using the fluorogenic substrate MeOSuc-Ala-Ala-Pro-Val-AMC (Bachem Cat. No. 1-1270, substrate concentration: 250 μM, pH 7.5, 25 mM TRIS buffer, 250 mM NaCl) in analogous fashion as described for the human neutrophil assay. A dose response curve is generated to calculate the EC50 of the inhibitor. The analysis of the data is performed by the calculation of the percentage of fluorescence in the presence of the test compound compared to the fluorescence of the vehicle control after subtracting the background fluorescence: An inhibitor of the neutrophil elastase enzyme will give values between 100% control (no inhibition) and 0% control (complete inhibition). The human plasma shift of selected compounds can be calculated using the following equation: Human plasma shift=(EC50 in human plasma assay)/(IC50 in human neutrophil elastase assay) The EC50 values of selected compounds in the human plasma assay described above are listed in Table 14.

[1] = Metabolic stability with human hepatocytes; format: in vitro ADME; conditions: human hepatocyte suspension, 1 μM, scaled with well stirred model
Description: Assay for the Determination of Metabolic Stability with Human Hepatocytes
The metabolic degradation of the test compound is assayed in a human hepatocyte suspension. Human hepatocytes (typically cryopreserved) are incubated in an appropriate buffer system (e.g. Dulbecco's modified eagle medium plus 3.5 μg glucagon/500 mL, 2.5 mg insulin/500 mL and 3.75 mg/500 mL hydrocortison) containing 5% species serum. Following a (typically) […] preincubation in an incubator (37° C., 10% CO2), 5 μl of test compound solution (80 μM; from 2 mM stock solution in DMSO diluted 1:25 with medium) are added into 395 μl hepatocyte suspension (cell density in the range 0.25-5*10^6 cells/mL, typically 1*10^6 cells/mL; final concentration of test compound 1 μM, final DMSO concentration […]). The cells are incubated for six hours (incubator, orbital shaker) and samples (25 μl) are taken at 0, 0.5, 1, 2, 4 and 6 hours. Samples are transferred into acetonitrile and pelleted by centrifugation (5 min). The supernatant is transferred to a new 96-deepwell plate, evaporated under nitrogen and resuspended. The decline of parent compound is analyzed by LC-MS/MS.
The intrinsic clearance CL_[…] is calculated as follows: CL_[…]=Dose/AUC=(C0/CD)/(AUD+clast/k)*1′000/60 (C0: initial concentration in the incubation [μM], CD: cell density of vital cells [10^6 cells/mL], AUD: area under the data [μM*h], clast: concentration of last data point [μM], k: slope of the regression line for parent decline [h^−1])
The calculated in vitro hepatic intrinsic clearance can be scaled up to the intrinsic in vivo hepatic clearance and used to predict hepatic in vivo blood clearance (CL) by the use of a is liver model (well stirred model): CL_[…]_INVIVO [ml/min/kg]=(CL_[…] [μL/min/10^6 cells]* hepatocellularity[10^6 cells/g liver]*liver factor[g/kg bodyweight])/1′000 CL[ml/min/kg]=CL_[…]_INVIVO [ml/min/kg]*hepatic blood flow [ml/min/kg]/(CL_[…]_INVIVO [ml/min/kg]+hepatic blood flow [ml/min/kg]) Qh[%]=CL[ml/min/kg]/hepatic blood flow[ml/min/kg]) (Hepatocellularity, human: 120*10^6 cells/g liver; lver factor, human: 25.7 g/kg bodyweight; blood flow, human: 21 ml/(min*kg))
The predicted human hepatic in vivo blood clearance (CL) of selected compounds in the metabolic stability assay described above are listed in Table 16.

SMILES	solubility at 24 h (Aqueous solubility) [µg/mL]	EC50 (neutrophil elastase) [nM]	CL (predicted human hepatic in vivo blood clearance) [1] [mL/min/kg]	Aqueous solubility (Aqueous solubility) [µg/mL]
N#Cc1ccc(C2C3=C(CCCC3=O)N(c3cccc(C(F)(F)F)c3)C(=O)N2C(=O)NCCO)cc1 (centres unmarked) [Example 39.3]	6 (≈ 12 µM)	6	–	–
CS(=O)(=O)CCNC(=O)N1C(=O)N(c2cccc(C(F)(F)F)c2)C2=C(C(=O)CCC2)C1c1ccc(C#N)cc1 (centres unmarked) [Example 39.19]	9 (≈ 16.1 µM)	9	0	–
CC(C)NC(=O)N1C(=O)N(c2cccc(C(F)(F)F)c2)C2=C(C(=O)CCC2)[C@H]1c1ccc(C#N)cc1S(C)(=O)=O [Example 75.3]	–	1	0	9
CS(=O)(=O)c1cc(C#N)ccc1[C@@H]1C2=C(CCCC2=O)N(c2cccc(C(F)(F)F)c2)C(=O)N1C(=O)NCC(F)F [Example 75.7]	–	1	0	5
